According to PMC12503909, “C1′‐Branched Acyclic Nucleoside Phosphonates as Inhibitors of Plasmodium Falciparum 6‐Oxopurine Phosphoribosyltransferase” (Chemmedchem, 2025):

Experiments:
NHDF = experiment: Cytotoxicity of the prodrug in human cells (CellTiter-Glo 2.0), NHDF; assay type: cell-based; settings: 10 µM, versus untreated control; mean ± SD
Procedure: (§1) Compound cytotoxicity was evaluated in nontumor human dermal fibroblasts (NHDF), CCRF‐CEM, HL‐60, HeLa, and HepG2 cells. All cell lines were obtained from ATCC (Manassas, VA, USA). The cytotoxicity was assayed using CellTiter‐Glo 2.0 detection reagent (Promega, Madison, USA) according to the manufacturer's protocol. The concentration of prodrug used in this assay was 10 μM. This concentration was chosen as it would more accurately reflect the expected concentration in an in vitro assessment.

HepG2 = experiment: Cytotoxicity of the prodrug in human cells (CellTiter-Glo 2.0), HepG2; assay type: cell-based; settings: 10 µM, versus untreated control; mean ± SD
Procedure: as §1

HeLa = experiment: Cytotoxicity of the prodrug in human cells (CellTiter-Glo 2.0), HeLa; assay type: cell-based; settings: 10 µM, versus untreated control; mean ± SD
Procedure: as §1

HL-60 = experiment: Cytotoxicity of the prodrug in human cells (CellTiter-Glo 2.0), HL-60; assay type: cell-based; settings: 10 µM, versus untreated control; mean ± SD
Procedure: as §1

CCRF-CEM = experiment: Cytotoxicity of the prodrug in human cells (CellTiter-Glo 2.0), CCRF-CEM; assay type: cell-based; settings: 10 µM, versus untreated control; mean ± SD
Procedure: as §1

P. falciparum W2 = experiment: In vitro antimalarial activity, 3H-hypoxanthine growth inhibition assay, W2 line; assay type: cell-based, Plasmodium falciparum; settings: Plasmodium falciparum, W2, Erythrocyte, 96 h, Pf infected erythrocytes, W2 strain resistant to chloroquine, mean ± SD of three independent experiments
Procedure: (§2) The IC50 values were determined as previously described.^[ [32] ^] P. falciparum D6 (Sierra‐Leone) laboratory line, sensitive to most antimalarial drugs, and W2 (Indochina) line, resistant to chloroquine and pyrimethamine, were maintained as previously described^[ [33] ^] in medium consisted of 10.4 g L^−1 RPMI‐1640‐LPLF powder (Gibco BRL), 5.97 g L^−1 HEPES buffer (MP Biomedicals, USA), 2.0 g L^−1 d‐glucose (BDH chemicals, Australia), 0.05 g L^−1 hypoxanthine (Sigma, USA) and 40 mg L^−1 gentamycin (Pfizer, Australia), supplemented with 0.21% NaHCO3 and 10% human plasma prior to use. Red blood cells O (Rh+) type were obtained from the Australian Red Cross Blood Service and added to 4% haematocrit. Cultures were routinely synchronized using D‐sorbitol.^[ [34] ^] To evaluate the antimalarial activity of the ANPs, the ^3H‐hypoxanthine growth inhibition assay was utilized, where the uptake of ^3H‐hypoxanthine by malaria parasites is used as a surrogate marker for parasite growth. For these assays, stock solutions of the tested compounds were made to concentrations of 20–40 mM in DMSO or water and subsequently diluted in hypoxanthine‐free complete media prior to assay. The assays (in 96‐well plate format) were initiated when most parasites (> 90%) were at the early trophozoite (ring) stage. Parasite cultures (100 μL per well) at 0.5% initial parasitemia and 2% hematocrit in hypoxanthine‐free RPMI1640‐LPLF medium were exposed to ten twofold serial dilutions of the compounds and chloroquine (reference drug) for 96 h, with ^3H‐hypoxanthine (0.2 μCi well^−1) added ≈48 h after the beginning of the experiment.
(§3) The ^3H‐hypoxanthine incorporation data were analyzed, and sigmoidal growth inhibition curves were produced by nonlinear regression analysis of the ^3H‐hypoxanthine incorporation data versus log‐transformed concentrations of the compounds using Graphpad Prism V5.0 software (GraphPad Software Inc. USA). […] The IC50 values were based on three independent experiments, with mean ± SD calculated.

P. falciparum D6 = experiment: In vitro antimalarial activity, 3H-hypoxanthine growth inhibition assay, D6 line; assay type: cell-based, Plasmodium falciparum; settings: Plasmodium falciparum, D6, Erythrocyte, 96 h, Pf infected erythrocytes, D6 strain sensitive to chloroquine, mean ± SD of three independent experiments
Procedure: as §2, §3

CCOC(=O)[C@H](Cc1ccccc1)NP(=O)(COCCC(OCCCO)n1cnc2c(=O)[nH]cnc21)N[C@@H](Cc1ccccc1)C(=O)OCC (stereo partly drawn) [21e, Bis‐(L‐phenylalaninate ethyl ester) prodrug of ((3‐(3‐hydroxypropoxy)‐3‐(hypoxanthin‐9‐yl)propoxy)methyl) phosphonic acid]
Viability NHDF (NHDF): 110 ± 7 % control
Viability HepG2 (HepG2): 106 ± 3 % control
Viability HeLa (HeLa): 105 ± 1 % control
Viability HL-60 (HL-60): 110 ± 1 % control
Viability CCRF-CEM (CCRF-CEM): 105 ± 2 % control
IC50 (P. falciparum W2): 41 ± 5 µM
IC50 (P. falciparum D6): 14 ± 2 µM

CCOC(=O)[C@H](Cc1ccccc1)NP(=O)(COCCC(OCCCO)n1cnc2c(=O)[nH]c(N)nc21)N[C@@H](Cc1ccccc1)C(=O)OCC (stereo partly drawn) [21f, Bis‐(L‐phenylalaninate ethyl ester) prodrug of ((3‐(3‐hydroxypropoxy)‐3‐(guanin‐9‐yl)propoxy)methyl) phosphonic acid]
Viability NHDF (NHDF): 116 ± 4 % control
Viability HepG2 (HepG2): 110 ± 2 % control
Viability HeLa (HeLa): 106 ± 1 % control
Viability HL-60 (HL-60): 105 ± 2 % control
Viability CCRF-CEM (CCRF-CEM): 103 ± 1 % control
IC50 (P. falciparum W2): 26 ± 14 µM
IC50 (P. falciparum D6): 13 ± 2 µM

CCOC(=O)[C@H](Cc1ccccc1)NP(=O)(COCCC(OCCCO)n1ncc2c(=O)[nH]cnc21)N[C@@H](Cc1ccccc1)C(=O)OCC (stereo partly drawn) [21g, Bis‐(L‐phenylalaninateethyl ester) prodrug of ((3‐(3‐hydroxypropoxy)‐3‐(4‐oxo‐4,5‐dihydro‐1H‐pyrazolo[3,4‐d]pyrimidin‐1‐yl)propoxy)methyl) phosphonic acid]
Viability NHDF (NHDF): 114 ± 3 % control
Viability HepG2 (HepG2): 111 ± 6 % control
Viability HeLa (HeLa): 106 ± 2 % control
Viability HL-60 (HL-60): 107 ± 2 % control
Viability CCRF-CEM (CCRF-CEM): 105 ± 2 % control
IC50 (P. falciparum W2): 15 ± 2 µM
IC50 (P. falciparum D6): 11 ± 1 µM
